Experimental data published in ChEMBL document CHEMBL1143504, “Structure-based design of derivatives of tyropeptin A as the potent and selective inhibitors of mammalian 20S proteasome” (Bioorg Med Chem Lett, 2005).
Where a SMILES comes first, the peptide text is derived from it. [ ]: non-standard residue; d: D form. The star is where a group is joined. ξ: configuration not given here. ξY = NC(Cc1ccc(O)cc1)C(=O)O; Isovaleryl = CC(C)CC(=O)*; Hexanoyl = CCCCCC(=O)*; PhAc = O=C(Cc1ccccc1)*

Key:
Format in all cases: functional, subcellular
20S proteasome [1] = assay: Inhibitory concentration to inhibit chymotrypsin-like activity of 20S proteasome prepared from human leukemia HL-60 cells was determined
20S proteasome [2] = assay: Inhibitory concentration to inhibit trypsin-like activity of 20S proteasome from human leukemia HL-60 cells was determined
20S proteasome [3] = assay: Inhibitory concentration to inhibit the PGPH activity of 20S proteasome prepared from human leukemia HL-60 cells was determined

`COc1ccc(C[C@@H](C=O)NC(=O)[C@@H](NC(=O)[C@H](Cc2ccc(OC)cc2)NC(=O)CN(C)C)C(C)C)cc1` showed an IC50 (20S proteasome [1]) of 1.2 µM, an IC50 (20S proteasome [2]) of 7.8 µM and an IC50 (20S proteasome [3]) greater than 100 µM.
In the case of `CC(C)[C@H](NC(=O)[C@H](Cc1ccc(O)cc1)NC(=O)Cc1ccccc1)C(=O)NC(C=O)Cc1ccc(O)cc1` (stereo partly drawn) (PhAc-Tyr-Val-[ξY]-aldehyde), the IC50 (20S proteasome [1]) is reported as 0.027 µM, the IC50 (20S proteasome [2]) is reported as 2 µM and the IC50 (20S proteasome [3]) is reported as 16 µM.
`CC(C)[C@H](NC(=O)[C@H](Cc1ccc(O)cc1)NC(=O)Cc1ccc2ccccc2c1)C(=O)NC(C=O)Cc1ccc(O)cc1` (stereo partly specified) showed an IC50 (20S proteasome [1]) of 0.014 µM, an IC50 (20S proteasome [2]) of 0.7 µM and an IC50 (20S proteasome [3]) of 4.7 µM.
`CCCCCC(=O)N[C@@H](Cc1ccc(O)cc1)C(=O)N[C@H](C(=O)NC(C=O)Cc1ccc(O)cc1)C(C)C` (stereo partly drawn) (Hexanoyl-Tyr-Val-[ξY]-aldehyde) gave an IC50 (20S proteasome [1]) of 0.037 µM, an IC50 (20S proteasome [2]) of 2 µM and an IC50 (20S proteasome [3]) of 20 µM.
Work on `COc1ccc(CC(C=O)NC(=O)[C@@H](NC(=O)[C@H](Cc2ccc(OC)cc2)NC(=O)CC(C)C)C(C)C)cc1` (stereo partly specified) (Isovaleryl-Tyr(Me)-Val-[ξY](Me)-aldehyde) yielded an IC50 (20S proteasome [1]) of 0.12 µM, an IC50 (20S proteasome [2]) of 37 µM and an IC50 (20S proteasome [3]) of 56 µM.
`CC(C)[C@H](NC(=O)[C@H](Cc1ccc(O)cc1)NC(=O)CC1CCCCC1)C(=O)NC(C=O)Cc1ccc(O)cc1` (stereo partly specified) was tested, and the IC50 (20S proteasome [1]) was 0.33 µM, the IC50 (20S proteasome [2]) was 3 µM and the IC50 (20S proteasome [3]) was 17 µM.
In the case of `COc1ccc(C[C@H](NC(=O)Cc2cccc3ccccc23)C(=O)N[C@H](C(=O)NC(C=O)Cc2ccc(O)cc2)C(C)C)cc1` (stereo partly specified), the IC50 (20S proteasome [1]) is reported as 0.02 µM, the IC50 (20S proteasome [2]) is reported as 6 µM and the IC50 (20S proteasome [3]) is reported as 31 µM.
`COc1ccc(CC(C=O)NC(=O)[C@@H](NC(=O)[C@H](Cc2ccc(OC)cc2)NC(=O)Cc2cccc3ccccc23)C(C)C)cc1` (stereo partly specified) was tested, and the IC50 (20S proteasome [1]) was 0.027 µM, the IC50 (20S proteasome [2]) was greater than 100 µM and the IC50 (20S proteasome [3]) was greater than 100 µM.
With `COc1ccc(CC(C=O)NC(=O)[C@@H](NC(=O)[C@H](Cc2ccc(O)cc2)NC(=O)Cc2cccc3ccccc23)C(C)C)cc1` (stereo partly specified) the IC50 (20S proteasome [1]) was 0.018 µM, the IC50 (20S proteasome [2]) was 6 µM and the IC50 (20S proteasome [3]) was 38 µM.
Compound `CC(C)CC(=O)N[C@@H](Cc1ccc(O)cc1)C(=O)N[C@H](C(=O)NC(C=O)Cc1ccc(O)cc1)C(C)C` (stereo partly drawn) [TYROPEPTIN A] (Isovaleryl-Tyr-Val-[ξY]-aldehyde) has an IC50 (20S proteasome [1]) of 0.14 µM, an IC50 (20S proteasome [2]) of 5 µM and an IC50 (20S proteasome [3]) of 68 µM.
Compound `COc1ccc(CC(C=O)NC(=O)[C@@H](NC(=O)[C@H](Cc2ccc(O)cc2)NC(=O)CC(C)C)C(C)C)cc1` (stereo partly drawn) (Isovaleryl-Tyr-Val-[ξY](Me)-aldehyde) has an IC50 (20S proteasome [1]) of 0.19 µM, an IC50 (20S proteasome [2]) of 21 µM and an IC50 (20S proteasome [3]) of 21 µM.
Compound `CC(C)[C@H](NC(=O)[C@H](Cc1ccc(O)cc1)NC(=O)Cc1cccc2ccccc12)C(=O)NC(C=O)Cc1ccc(O)cc1` (stereo partly specified) has an IC50 (20S proteasome [1]) of 0.007 µM, an IC50 (20S proteasome [2]) of 1.2 µM and an IC50 (20S proteasome [3]) of 4.9 µM.
